According to patent US5068251A, “Lipoxygenase inhibiting compounds” (Abbott Laboratories, priority 1988, dated 1991):

Tests used:
leukotriene biosynthesis = assay: Inhibition of leukotriene biosynthesis in vivo, rat peritoneal anaphylaxis model; details: 40 mg/kg i.p., 30 minutes prior to antigen challenge, peritoneal fluids collected 15 minutes after challenge, versus mean of control group
Description: Inhibition of the biosynthesis of leukotrienes in vivo after intraperitoneal administration of compound was determined using a rat peritoneal anaphylaxis model. In this model rats were injected intraperitoneally (ip) with rabbit antibody to bovine serum albumin (BSA) and three hours later injected ip with BSA to induce an antgen-antibody response. Rats were sacrificed 15 minutes after this challenge and the peritoneal fluids were collected and analyzed for leukotriene levels. Test compound was injected intraperitoneal 30 minutes prior to the antigen challenge. Percent inhibition values were determined by comparing the treatment group to the mean of the control group.

5-lipoxygenase = target: T1, 5-lipoxygenase (Rattus norvegicus, UniProt P12527); assay: Inhibition of 5-lipoxygenase activity in 20,000×g supernatant from homogenized RBL-1 cells; format: biochemical; details: linear regression of percentage inhibition versus log inhibitor concentration, read-out: IC50 (In vitro 5-lipoxygenase inhibitory potency)
T1 construct: 20,000×g supernatant from homogenized RBL-1 cells; endogenous in cells; host or cells: RBL-1 cells (20,000×g supernatant of the homogenate)
T1 sequence (P12527 1-673): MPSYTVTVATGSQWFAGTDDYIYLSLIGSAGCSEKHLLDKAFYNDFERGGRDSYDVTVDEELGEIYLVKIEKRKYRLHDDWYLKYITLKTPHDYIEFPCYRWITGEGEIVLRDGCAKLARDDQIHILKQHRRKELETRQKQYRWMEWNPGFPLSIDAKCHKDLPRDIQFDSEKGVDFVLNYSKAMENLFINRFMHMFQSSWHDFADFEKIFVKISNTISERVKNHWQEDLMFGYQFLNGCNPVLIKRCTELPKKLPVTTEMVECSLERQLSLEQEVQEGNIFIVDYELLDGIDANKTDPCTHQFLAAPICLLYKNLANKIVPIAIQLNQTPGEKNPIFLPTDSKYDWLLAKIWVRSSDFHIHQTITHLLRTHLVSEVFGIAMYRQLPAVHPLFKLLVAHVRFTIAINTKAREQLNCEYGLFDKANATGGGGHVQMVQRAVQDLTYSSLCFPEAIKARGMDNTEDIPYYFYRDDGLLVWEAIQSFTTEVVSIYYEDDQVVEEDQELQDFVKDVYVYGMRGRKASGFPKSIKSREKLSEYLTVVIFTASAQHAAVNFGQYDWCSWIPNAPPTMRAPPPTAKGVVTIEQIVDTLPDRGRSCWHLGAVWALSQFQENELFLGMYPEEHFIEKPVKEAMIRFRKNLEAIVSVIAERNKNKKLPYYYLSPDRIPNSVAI
Description: Inhibition of 5-lipoxygenase activity was determined using the 20,000×g supernatant from homogenized RBL-1 cells in a similar manner as that described by Dyer and coworkers (Dyer, R. D.; Haviv, F.; Hanel, A. M.; Bornemier, D. A.; Carter, G. W. Fed. Proc , Fed. Am. Soc. Exp. Biol. 1984, 43, 1462A).

Compound	inhibition of leukotriene biosynthesis in vivo (leukotriene biosynthesis)	IC50 (5-lipoxygenase)
COc1ccc2c(c1)c(CNC(=O)N(C)O)c(C)n2C(=O)c1ccc(Cl)cc1 [Example 1, N'-hydroxy-N'-methyl-N-(4'-chlorobenzoyl-5-methoxy-2-methyl-3-indolyl)methyl urea]	81%	
CC(C)Cc1ccc(C(C)NC(=O)NO)cc1 (stereo not drawn) [Example 3, N'-hydroxy-N-[l-(4-(2'methylpropyl)phenyl)ethyl]urea]		2900 nM
CC(C)Cc1ccc(C(C)CNC(=O)NO)cc1 (stereo not drawn) [Example 4, N'-hydroxy-N-[2-(4-(2'-methylpropyl)phenyl)]urea]		1900 nM
